Assay results published in ChEMBL document CHEMBL5214931, “Recent advances in combretastatin A-4 codrugs for cancer therapy” (Eur J Med Chem, 2022).

Tests used:
A549 [1] = assay: Cytotoxicity against human A549 cells assessed as cell growth inhibition measured after 48 hrs by MTT assay; format: functional, cell-based; details: A549, 48 h
HepG2 [2] = assay: Cytotoxicity against human HepG2 cells assessed as cell growth inhibition measured after 48 hrs by MTT assay; format: functional, cell-based; details: HepG2, 48 h
MGC-803 [3] = assay: Cytotoxicity against human MGC-803 cells assessed as cell growth inhibition; format: functional, cell-based
MDA-MB-231 = assay: Cytotoxicity against human MDA-MB-231 cells assessed as cell growth inhibition; format: functional, cell-based
HepG2 [4] = assay: Cytotoxicity against human HepG2 cells assessed as cell growth inhibition; format: functional, cell-based
MGC-803 [5] = assay: Antitumor activity against human MGC-803 cells xenografted in mouse assessed as inhibition of tumor growth at 50 mg/kg, po administered relative to control; format: functional; details: read-out: TGI
HeLa = assay: Cytotoxicity against human HeLa cells assessed as cell growth inhibition; format: functional, cell-based
A549 [6] = assay: Cytotoxicity against human A549 cells assessed as cell growth inhibition; format: functional, cell-based
PANC-1 = assay: Cytotoxicity against human PANC-1 cells assessed as cell growth inhibition measured after 72 hrs XTT assay; format: functional, cell-based; details: PANC-1, 72 h
PC-3 = assay: Cytotoxicity against human PC-3 cells assessed as cell growth inhibition measured after 72 hrs XTT assay; format: functional, cell-based; details: PC-3, 72 h
[7] = Phototoxicity against rat AY-27 cells assessed as cell growth inhibition incubated for 2 hrs followed by diode laser illumination in presence of HAL by MTT assay relative to control; format: functional; design: scale not given: the % may be the effect or the level left
Estrogen receptor = biological target: T1, Estrogen receptor (Homo sapiens, UniProt P03372); assay: Inhibition of human recombinant ERalpha expressed in baculovirus expression system measured after 20 mins by fluorescent polarisation Assay
T1 sequence (P03372 whole entry): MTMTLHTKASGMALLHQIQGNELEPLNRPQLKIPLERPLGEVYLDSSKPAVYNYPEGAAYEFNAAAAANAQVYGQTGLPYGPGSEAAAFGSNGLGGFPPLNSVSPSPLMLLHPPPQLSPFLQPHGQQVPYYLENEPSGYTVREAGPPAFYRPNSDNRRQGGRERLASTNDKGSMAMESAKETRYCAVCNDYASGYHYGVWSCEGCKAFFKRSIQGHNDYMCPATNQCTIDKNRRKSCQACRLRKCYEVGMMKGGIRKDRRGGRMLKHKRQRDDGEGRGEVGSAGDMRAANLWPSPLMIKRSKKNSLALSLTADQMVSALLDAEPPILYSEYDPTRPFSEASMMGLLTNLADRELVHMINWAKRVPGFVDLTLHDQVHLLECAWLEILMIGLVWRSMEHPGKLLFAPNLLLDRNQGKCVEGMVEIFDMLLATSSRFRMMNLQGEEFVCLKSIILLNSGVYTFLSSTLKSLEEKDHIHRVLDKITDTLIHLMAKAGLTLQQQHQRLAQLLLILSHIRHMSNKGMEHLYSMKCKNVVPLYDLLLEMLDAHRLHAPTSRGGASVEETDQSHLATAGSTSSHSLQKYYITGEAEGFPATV

Estrogen receptor beta = Estrogen receptor beta (Homo sapiens, UniProt Q92731); assay: Inhibition of human recombinant ERbeta expressed in baculovirus expression system measured after 20 mins by fluorescent polarisation Assay
Sequence of Estrogen receptor beta (Q92731 whole entry): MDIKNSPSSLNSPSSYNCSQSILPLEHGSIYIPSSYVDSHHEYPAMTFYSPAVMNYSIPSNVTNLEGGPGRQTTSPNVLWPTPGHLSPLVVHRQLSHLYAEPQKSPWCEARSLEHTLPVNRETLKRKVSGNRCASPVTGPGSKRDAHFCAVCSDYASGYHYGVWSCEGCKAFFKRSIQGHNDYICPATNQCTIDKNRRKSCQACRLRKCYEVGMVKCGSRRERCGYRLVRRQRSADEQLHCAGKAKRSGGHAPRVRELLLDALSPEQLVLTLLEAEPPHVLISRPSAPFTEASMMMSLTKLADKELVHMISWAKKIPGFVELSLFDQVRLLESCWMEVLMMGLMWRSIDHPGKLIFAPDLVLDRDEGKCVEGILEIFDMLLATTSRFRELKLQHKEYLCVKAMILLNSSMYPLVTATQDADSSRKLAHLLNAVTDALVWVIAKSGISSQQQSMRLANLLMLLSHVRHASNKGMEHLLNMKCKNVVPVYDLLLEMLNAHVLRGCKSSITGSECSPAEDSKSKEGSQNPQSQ

MCF7 = assay: Cytotoxicity against human MCF7 cells assessed as cell growth inhibition by MTT assay; format: functional, cell-based
MDA-MB-468 = assay: Phototoxicity against human MDA-MB-468 cells assessed as cell growth inhibition incubated for 24 hrs followed by LED illumination by MTT assay; format: functional, cell-based; details: MDA-MB-468, light or radiation study

SMILES | IC50 (A549 [1]) | IC50 (HepG2 [2]) | IC50 (MDA-MB-231) | IC50 (HeLa) | IC50 (A549 [6]) | other results
COc1ccc(/C=C\c2cc(OC)c(OC)c(OC)c2)cc1OC(=O)C1CC(C)(C)N(O)C1(C)C (stereo not drawn) | 42 nM | 1.83 µM | – | – | – | –
COc1ccc(/C=C\c2cc(OC)c(OC)c(OC)c2)cc1OC(=O)Cn1cc(F)c(=O)[nH]c1=O | – | – | 0.4 µM | 31 nM | < 0.3 nM | IC50 (MGC-803 [3]): < 0.3 nM; IC50 (HepG2 [4]): 22.8 nM; inhibition in vivo at 50 mg/kg (MGC-803 [5]): 75%
COc1ccc(/C=C\c2cc(OC)c(OC)c(OC)c2)cc1OC(=O)CCn1cc(F)c(=O)[nH]c1=O | – | – | 80.7 µM | 30 nM | < 0.3 nM | IC50 (MGC-803 [3]): < 0.3 nM; IC50 (HepG2 [4]): 7330 nM
CC[C@H](C)[C@H](NC(=O)[C@@H](N)CC(C)C)C(=O)N[C@@H](Cc1ccc(O)cc1)C(=O)N1CCC[C@H]1C(=O)N[C@@H](CCCNC(=N)N)C(=O)N[C@@H](CCCNC(=N)N)C(=O)NCCCCCC(NC(=O)[C@@H](CCCNC(=N)N)NC(=O)[C@@H](CCCNC(=N)N)NC(=O)[C@@H]1CCCN1C(=O)[C@H](Cc1ccc(O)cc1)NC(=O)[C@@H](NC(=O)[C@@H](N)CC(C)C)[C@@H](C)CC)C(=O)NC(CCCCNC(=O)C(CCCCNC(=O)[C@H](CCCNC(=N)N)NC(=O)[C@H](CCCNC(=N)N)NC(=O)[C@@H]1CCCN1C(=O)[C@H](Cc1ccc(O)cc1)NC(=O)[C@@H](NC(=O)[C@@H](N)CC(C)C)[C@@H](C)CC)NC(=O)[C@H](CCCNC(=N)N)NC(=O)[C@H](CCCNC(=N)N)NC(=O)[C@@H]1CCCN1C(=O)[C@H](Cc1ccc(O)cc1)NC(=O)[C@@H](NC(=O)[C@@H](N)CC(C)C)[C@@H](C)CC)C(=O)NCCC(=O)NC(CCCCNC(=O)CCOCCOCCNC(=O)CCCCC(=O)Oc1cc(/C=C\c2cc(OC)c(OC)c(OC)c2)ccc1OC)C(N)=O (stereo partly drawn) | – | – | – | – | – | IC50 (PANC-1): 500 nM; IC50 (PC-3): 850 nM
COc1ccc(/C=C\c2cc(OC)c(OC)c(OC)c2)cc1OC(=O)C1=CC(C)(C)N(O)C1(C)C | 160 nM | 3.27 µM | – | – | – | –
COc1ccc(/C=C\c2cc(OC)c(OC)c(OC)c2)cc1OC(=O)C1CC(C)(C)N(O)C(C)(C)C1 | 170 nM | 11.2 µM | – | – | – | –
CCN(CC)c1ccc2c(-c3ccccc3C(=O)OCC3CCN(/C=C/C(=O)Oc4cc(/C=C\c5cc(OC)c(OC)c(OC)c5)ccc4OC)CC3)c3ccc(=[N+](CC)CC)cc-3oc2c1.[Cl-] | – | – | – | – | – | Activity [7]: 100%
COc1ccc(/C=C\c2cc(OC)c(OC)c(OC)c2)cc1OC(=O)N(C)CCOc1ccc(C(=C2CCC(C)CC2)c2ccc(O)cc2)cc1 (stereo not drawn) | – | – | – | – | – | IC50 (Estrogen receptor): 15 nM; IC50 (Estrogen receptor beta): 115 nM; IC50 (MCF7): 5.7 nM
COc1ccc(/C=C\c2cc(OC)c(OC)c(OC)c2)cc1OC(=O)C1=CC(C)(C)N(O)C(C)(C)C1 | 150 nM | 3.58 µM | – | – | – | –
COc1ccc(/C=C\c2cc(OC)c(OC)c(OC)c2)cc1O [COMBRETASTATIN A4] | 35 nM | 2.39 µM | 0.0033 µM | 400 nM | 2.54 nM | IC50 (MGC-803 [3]): 20.6 nM; IC50 (MDA-MB-468): 16 nM; IC50 (HepG2 [4]): 12.8 nM
O=c1[nH]cc(F)c(=O)[nH]1 [FLUOROURACIL] | – | – | 97 µM | 113 nM | 34900 nM | –
CCc1c2c(nc3ccc(OC(=O)N4CCC(N5CCCCC5)CC4)cc13)-c1cc3c(c(=O)n1C2)COC(=O)[C@]3(O)CC [IRINOTECAN] | 2000 nM | 34.1 µM | – | – | – | –
